Assay [1] has as its target T1, native human Bradykinin B1 receptor (Homo sapiens, UniProt P46663).
T1 construct: which express native human Bradykinin B1 receptor after induction with human IL-10; Coriell Institute; host or cells: IMR-90 human foetal lung fibroblasts, cytokine-induced
T1 sequence (P46663 1-353): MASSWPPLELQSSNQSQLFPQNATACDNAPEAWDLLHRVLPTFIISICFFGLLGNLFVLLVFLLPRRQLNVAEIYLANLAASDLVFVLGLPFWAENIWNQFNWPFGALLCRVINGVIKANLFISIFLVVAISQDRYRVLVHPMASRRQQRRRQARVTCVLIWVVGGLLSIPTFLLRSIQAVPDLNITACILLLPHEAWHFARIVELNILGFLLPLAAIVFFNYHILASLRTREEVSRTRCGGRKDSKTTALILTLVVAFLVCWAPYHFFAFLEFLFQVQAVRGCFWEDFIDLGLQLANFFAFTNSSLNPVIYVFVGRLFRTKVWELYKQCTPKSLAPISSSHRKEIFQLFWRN
The assay can be described thus: Calcium flux Assay (FLIPR) with human fibroblasts expressing Bradykinin B1 receptor (hB1 IMR-90). It counts as cell-based. The conditions noted are these: IMR-90 human fibroblasts expressing native Bradykinin B1 receptor. The procedure, abridged:
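IMR-90 human foetal lung fibroblasts induced with 0.35 ng/mL […] for 3 h, Fluo-4/AM-loaded, preincubated with compound (8 concentrations, triplicate) for 30 min at 28 °C, then challenged with Lys-(Des-Arg)-bradykinin at EC90. Ca2+ fluorescence was read at 538 nm; full inhibition set by 20 µM Lys-(Des-Arg-Leu)-bradykinin; IC50 derived.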
For orientation: Calcium flux is commonly read through the fluorescence of an indicator in the cells.

The subject of a further assay is IL-8 secretion. The assay can be described thus: Inhibitory activity on Bradykinin B1 agonist-induced secretion of IL-8 in human IMR-90 cells. Format: cell-based. The conditions noted are these: 30 min compound, stimulated with 0.1 μM Lys-[Des-Arg9]Bradykinin and 0.1 μM Sar-[D-Phe8]-des-Arg9-Bradykinin for 5 hours. The source says:
Inhibitory activity on Bradykinin B1 agonist-induced secretion of IL-6 and IL-8 in human IMR-90 cells
The effect of the compound examples on secretion of the cytokine IL-6 and IL-8 has been investigated in the human foetal lung fibroblast IMR-90 cell line. Here the induction of the cytokine secretion was induced by the Bradykinin B1 agonists Lys-[Des-Arg9]Bradykinin (CAS 71800-36-7, Tocris Bioscience) and Sar-[D-Phe8]-des-Arg9-Bradykinin (CAS 126959-88-4, Tocris Bioscience) leading to the activation of the Bradykinin B1-driven signalling pathway. This effect is indicative for a strong anti-inflammatory mode of action in kinin driven inflammation.
IMR-90 cells were cultured in Eagle's Minimum Essential Medium (EMEM) containing 2 mM L-glutamine, 1 g/L glucose, 1.5 g/L NaHCO3, 1 mM sodium pyruvate and non-essential amino acids (ATCC, 30-2003™) supplemented with 10% FBS (Biochrom, S0615) and 50 U/mL Penicillin, 50 μg/mL Streptomycin (PAA, P11-010). The assay was performed in EMEM and a cell density of […] IMR-90 cells/96-well. The compound examples have been serial diluted in 100% DMSO and evaluated at 8 different concentrations within the range of 3 nM and 10 μM and a final DMSO concentration of 0.4%. The IMR-90 cells have been incubated with the respective concentration of the compound for 30 min. The enhanced secretion of IL-6 and IL-8 was induced by the stimulation of these cells with 0.1 μM Lys-[Des-Arg9]Bradykinin (Tocris, catalogue no. 3225) and 0.1 μM Sar-[D-Phe8]-des-Arg9-Bradykinin (Tocris, catalogue no. 3230) for 5 hours at 37° C. and 5% C02. Further, cells have been treated with Lys-[Des-Arg9]Bradykinin and Sar-[D-Phe8]-des-Arg9-Bradykinin as neutral control and with 0.1% DMSO as inhibitor control. The amount of IL-6 and IL-8 in the supernatant was determined using the Human Prolnflammatory Panel II (4-Plex) (MSD, K15025B) according to manufacturer's instruction. Briefly, supernatants were added onto assay plates and incubated at room temperature for 1-2 h with vigorous shaking at 600 rpm. Detection antibodies were then added onto the supernatants and incubated at room temperature for an additional 1-2 h with vigorous shaking at 600 rpm. Plates were washed three times with phosphate-buffered saline (PBS; 137 mM NaCl, 2.7 mM KCl, 6.5 mM Na2HPO4, 1.7 mM KH2P04) containing 0.05% Tween-20 (Bio-Rad, 161-0781) and electrochemiluminescence detected using the MSD Sector Imager 6000 plate reader. The cell viability was measured using the CellTiter-Glo Luminescent Assay (Promega, G7571) following the manufacturers protocol. Briefly, the CellTiter-Glo Reagent was diluted with PBS (1:1) and added directly to cells. After incubation and shaking for 10 minutes luminescent signal was measured which is proportional to the amount of ATP present.
The effect of the compound on the amount of secreted cytokine has been calculated as 100/(measured cytokine concentration of neutral control-measured cytokine concentration of inhibitor control)*(measured cytokine concentration of compound dose-measured cytokine concentration of inhibitor control). IC50 values are determined using 4-parameter-fit.
The compound examples were tested in triplicates per plate and the inhibitory activity was determined as the relation between neutral and inhibitor control in percent. IC50 values were calculated using the 4-parameter logistic model.

The record followed here is US20210317092A1 (BAYER PHARMA AKTIENGESELLSCHAFT, priority 2016, published 2021).

Molecules are shown by their SMILES.

Broadly, the IC50 is the concentration that inhibits the measured activity by half. In the case of `COc1ccc(-c2ccc(NC(=O)C3(c4cccc(Cl)c4)CC3)cc2-c2nnn[nH]2)cc1OC` [Example 1, 1-(3-Chlorophenyl)-N-[3′,4′-dimethoxy-2-(1H-tetrazol-5-yl)biphenyl-4-yl]cyclopropanecarboxamide], the IC50 was 14.2 nM in assay [1] and 60 nM with IL-8 secretion.

As to `CCOc1ccc(-c2ccc(NC(=O)C3(c4cccc(Cl)c4)CC3)cc2-c2nnn[nH]2)cn1` [Example 253, 1-(3-Chlorophenyl)-N-[4-(6-ethoxypyridin-3-yl)-3-(1H-tetrazol-5-yl)phenyl]cyclopropanecarboxamide], the IC50 in assay [1] is 14.9 nM; in the assay on IL-8 secretion, 75 nM.
